Measured values from patent US7417027B2, “Linear and cyclic melanocortin receptor-specific peptides” (Palatin Technologies, Inc., priority 2001, dated 2008).

Tests used:
hMC5-R = biological target: T1, hMC5-R (Homo sapiens, UniProt P33032); assay: Competitive inhibition binding assay, 125I-NDP-alpha-MSH, hMC5-R membranes
T1 construct: expressed in transfected cells

hMC3-R = biological target: T2, hMC3-R (Homo sapiens, UniProt P41968); assay: Competitive inhibition binding assay, 125I-NDP-alpha-MSH, hMC3-R membranes
T2 construct: expressed in transfected cells

MC1-R = MC1-R (Mus musculus, UniProt Q01727); assay: Competitive inhibition binding assay, 125I-NDP-alpha-MSH, B-16 mouse melanoma cell membranes; conditions: B-16 cells; read-out: Ki MC-1 B-16
[1] = Penile erection induction in male rats; assay type: in vivo, rat; conditions: male Sprague-Dawley rats; iv, varying quantities; 30 minutes observation; FIG. 2
Description: The ability of compounds to induce penile erection (PE) in male rats was evaluated with selected peptides. Male Sprague-Dawley rats weighing 200-250 g were kept on a 12 hour on/off light cycle with food and water ad libitum. All behavioral studies were performed between 10 a.m. and 5 p.m. Groups of 4-8 rats were treated with peptides at a variety of doses via intravenous (IV), subcutaneous (SC), intracerebroventricular (ICV), intraperitoneal (IP) injection or administered intranasally (IN) using a micropipetor to deliver 25 μL of solution into one nostril. Immediately after treatment, rats were placed into individual polystyrene cages (27 cm long, 16 cm wide, and 25 cm high) for behavioral observation.

[2] = Food intake and body weight change in male Sprague-Dawley rats; assay type: in vivo, rat; conditions: for average daily body weight gain / average daily body weight lost: saline animals gained 4 g
Description: Food intake and body weight change was evaluated for selected peptides. Male Sprague-Dawley rats weighing ˜300 g at the beginning of the experiment were kept on a 12 hour on/of light cycle. Lights out was adjusted to 12:00 p.m. to allow for dosing just prior to the start of their dark period. Rats (12/group) were fed powdered chow and water ad libitum. For 1 week before treatment, 24-hour food intake and body weight change was recorded to assess a baseline for the group during vehicle treatment. The rats were dosed ICV, IV, SC or IP on day 0 and food intake and body weight measured daily for 1 week. Animals were dosed once per week for up to 6 weeks and their food intake and daily weight changed compared to their baseline. FIGS. 3, 4 and 5 illustrate results of different peptides at different doses and by varying routes of administration.

[3] = Conditioned taste aversion in rats; assay type: in vivo, rat; conditions: IP 1500 μg/kg, saccharin water intake day 1 vs day 3, FIG. 6
Description: Conditioned taste aversion was evaluated in rats using selected peptides. Male Sprague-Dawley rats weighing ˜300 g were kept on a 12 hour on/of light cycle. Lights out was adjusted to 12:00 p.m. with food ad libitum. Animals were trained to be accustomed to 30 minutes of access to water per day. On day 1 of the experiment, rats were given 30 minutes of access to water containing 0.15% saccharin immediately prior to being dosed ICV, IV or IP with compound. On day 2 they were given plain water for the appointed time. On day 3 the rats were given saccharin-containing water again. The amount of fluid these animals consumed on day 1 and day 3 was compared. Reduced intake on day 3 indicates a conditioned taste aversion due to illness induced by drug treatment on day 1.

MC4-R [4] = biological target: T3, MC4-R (Homo sapiens, UniProt P32245); assay: Functional evaluation: intracellular cAMP accumulation in HEK-293 cells expressing MC4-R (agonist/antagonist status); assay type: cell-based; parameters: expressed in transfected cells; host or cells: HEK-293; conditions: with or without alpha-MSH, 1 hour at 37° C
Description: The Ki (nM) of certain peptides were determined, as was the agonist/antagonist status with respect to MC4-R. Functional evaluation of peptides at MC4-R was performed by measuring the accumulation of intracellular cAMP in HEK-293 cells expressing MC4-R. Antagonistic activity was determined by measuring the inhibition of α-MSH-induced cAMP levels following exposure to the compounds. Cells, suspended in Earle's Balanced Salt Solution containing 10 mM HEPES, pH 7.5, 5 mM MgCl2, 1 mM glutamine, 0.1% albumin and 0.6 mM 3-isobutyl-1-methyl-xanthine, a phosphodiesterase inhibitor, were plated in 96 well plates at a density of 0.5×10^5 cells per well. Cells were incubated with the test peptides in the presence or absence of α-MSH for 1 hour at 37° C. cAMP levels were measured by EIA (Amersham) in the cell lysates. Data analysis and EC50 values were determined using nonlinear regression analysis with Prism Graph-Pad software.

MC4-R [5] = biological target: T3, MC4-R; assay: Competitive inhibition binding assay, 125I-NDP-alpha-MSH, hMC4-R membranes; parameters: expressed in transfected cells

T3 sequence (P32245 whole entry): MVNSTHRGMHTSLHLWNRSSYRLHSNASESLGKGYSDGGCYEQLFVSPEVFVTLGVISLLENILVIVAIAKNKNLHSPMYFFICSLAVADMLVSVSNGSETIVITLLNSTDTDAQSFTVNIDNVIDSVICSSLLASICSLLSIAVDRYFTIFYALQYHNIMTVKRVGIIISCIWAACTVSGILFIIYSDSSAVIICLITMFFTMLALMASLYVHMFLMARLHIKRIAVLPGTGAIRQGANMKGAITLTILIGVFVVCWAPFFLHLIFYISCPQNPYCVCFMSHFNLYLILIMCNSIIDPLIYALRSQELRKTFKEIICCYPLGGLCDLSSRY
T1 sequence (P33032 whole entry): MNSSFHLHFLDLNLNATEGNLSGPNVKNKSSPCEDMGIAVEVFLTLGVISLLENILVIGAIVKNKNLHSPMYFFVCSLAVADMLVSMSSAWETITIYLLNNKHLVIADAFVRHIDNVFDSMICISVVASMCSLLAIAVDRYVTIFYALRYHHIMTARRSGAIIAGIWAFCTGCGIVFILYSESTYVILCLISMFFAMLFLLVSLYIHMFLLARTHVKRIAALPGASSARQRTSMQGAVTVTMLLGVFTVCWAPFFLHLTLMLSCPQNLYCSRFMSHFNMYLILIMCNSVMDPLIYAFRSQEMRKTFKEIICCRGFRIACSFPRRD
T2 sequence (P41968 whole entry): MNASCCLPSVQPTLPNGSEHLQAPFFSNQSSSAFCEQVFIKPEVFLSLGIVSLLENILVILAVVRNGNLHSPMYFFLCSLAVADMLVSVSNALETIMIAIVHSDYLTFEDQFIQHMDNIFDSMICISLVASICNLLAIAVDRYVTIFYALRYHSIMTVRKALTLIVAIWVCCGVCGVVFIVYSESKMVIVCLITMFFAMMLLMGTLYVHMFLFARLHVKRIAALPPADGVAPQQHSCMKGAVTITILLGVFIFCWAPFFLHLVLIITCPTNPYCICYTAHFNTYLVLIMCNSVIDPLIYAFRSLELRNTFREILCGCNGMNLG
Sequence of MC1-R (Q01727 whole entry): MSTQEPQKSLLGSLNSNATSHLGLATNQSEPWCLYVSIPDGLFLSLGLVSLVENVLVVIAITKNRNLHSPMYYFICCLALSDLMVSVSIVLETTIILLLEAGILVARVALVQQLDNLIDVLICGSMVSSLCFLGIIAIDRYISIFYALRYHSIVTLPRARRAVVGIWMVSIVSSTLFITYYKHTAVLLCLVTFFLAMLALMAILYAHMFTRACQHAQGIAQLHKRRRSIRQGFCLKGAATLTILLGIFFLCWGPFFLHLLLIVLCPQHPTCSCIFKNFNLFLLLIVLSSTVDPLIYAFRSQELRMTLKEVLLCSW

SMILES: N=C(N)NCCCC(NC(=O)C(Cc1ccc(Cl)cc1)NC(=O)C(COCc1ccccc1)NC(=O)CCCCCCN)C(=O)NC(Cc1c[nH]c2ccccc12)C(N)=O [7′-amino-heptanoyl-Ser(Bzl)-D-Phe(4-Cl)-Arg-Trp-NH2]
- percent inhibition of 125I-NDP-alpha-MSH binding, MC5-R (hMC5-R; hMC5-R membranes, 0.4 nM 125I-NDP-alpha-MSH, mean of triplicate, peptide concentration not given): 73%
- Ki (hMC5-R; membranes, read-out: Ki MC-5 Mem): 175 nM
- percent inhibition of 125I-NDP-alpha-MSH binding, MC3-R (hMC3-R; hMC3-R membranes, 0.4 nM 125I-NDP-alpha-MSH, mean of triplicate, peptide concentration not given): 94%
- Ki (hMC3-R; membranes, read-out: Ki MC-3 Mem): 25 nM
- Ki (MC1-R): 795 nM
- penile erection induction [1]: induced erections
- average daily body weight gain ([2]; ICV 0.1 nmol): 3 g
- average daily body weight lost ([2]; ICV 0.5 nmol): 1 g
- average daily body weight lost ([2]; ICV 1.0 nmol): 3 g
- time by which animals returned to baseline after dosing ([2]; ICV dosing, FIG. 4): ≤ 48 h
- average daily body weight gain ([2]; IP 750 μg/kg): 4 g
- average daily body weight gain ([2]; IP 1500 μg/kg): 2 g
- average daily body weight lost ([2]; IP 3000 μg/kg): 1 g
- conditioned taste aversion response [3]: no conditioned taste aversion response
- conditioned taste aversion response ([3]; listed as 7′-amino-heptanoyl-Ser(Bzl)-D-Phe(4′-Cl)-Arg-Trp-NH2): did not induce a conditioned taste aversion response
- HEK-293 (MC4-R) cells Classification (MC4-R [4]): Agonist
- percent inhibition of 125I-NDP-alpha-MSH binding, MC4-R (MC4-R [5]; hMC4-R membranes, 0.4 nM 125I-NDP-alpha-MSH, mean of triplicate, peptide concentration not given): 99%
- Ki (MC4-R [5]; membranes, read-out: Ki MC-4 Mem): 1 nM
